The NIST ThermoML archive (doi:10.1016/j.jct.2019.02.019)
± gives the expanded uncertainty stated by the source.

Key:
[1] = 101 kPa, Liquid; for viscosity: Capillary tube (Ostwald / Ubbelohde) method; for mass density: Vibrating tube method
[2] = xn = mol fraction of the nth substance listed; conditions: 101 kPa, Liquid, x2 = 0; for viscosity: Capillary tube (Ostwald / Ubbelohde) method; for mass density: Vibrating tube method

| SMILES | viscosity ([1]; 293.15 K) [mPa·s] | mass density ([1]; 293.15 K) [kg/m3] | viscosity ([1]; 303.15 K) [mPa·s] | mass density ([1]; 303.15 K) [kg/m3] | viscosity ([1]; 313.15 K) [mPa·s] | mass density ([1]; 313.15 K) [kg/m3] | viscosity ([1]; 323.15 K) [mPa·s] | mass density ([1]; 323.15 K) [kg/m3] | viscosity ([2]; 293.15 K) [mPa·s] | mass density ([2]; 293.15 K) [kg/m3] | viscosity ([2]; 303.15 K) [mPa·s] | mass density ([2]; 303.15 K) [kg/m3] | viscosity ([2]; 313.15 K) [mPa·s] | mass density ([2]; 313.15 K) [kg/m3] | viscosity ([2]; 323.15 K) [mPa·s] | mass density ([2]; 323.15 K) [kg/m3] |
| --- | --- | --- | --- | --- | --- | --- | --- | --- | --- | --- | --- | --- | --- | --- | --- | --- |
| CN(CCO)CCO [N-methyldiethanolamine] | 103.04 ± 4.3 | 1040.5 ± 1 | 57.28 ± 2.3 | 1032.6 ± 1 | 33.94 ± 1.4 | 1024.76 ± 1 | 21.31 ± 0.87 | 1017.12 ± 1 |  |  |  |  |  |  |  |  |
| NCCO [2-aminoethan-1-ol] + CN(CCO)CCO |  |  |  |  |  |  |  |  | 23.4 ± 0.95 | 1016.3 ± 1 | 14.71 ± 0.6 | 1008.02 ± 1 | 9.77 ± 0.4 | 999.98 ± 1 | 6.83 ± 0.28 | 991.97 ± 1 |
| CCO [ethanol] + NCCO |  |  |  |  |  |  |  |  | 1.17 ± 0.05 | 788.88 ± 1 | 0.97 ± 0.04 | 781.69 ± 1 | 0.81 ± 0.03 | 772.3 ± 1 | 0.69 ± 0.03 | 765.29 ± 1 |
| CCO [ethanol] | 1.17 ± 0.05 | 788.88 ± 1 | 0.97 ± 0.04 | 781.69 ± 1 | 0.81 ± 0.03 | 772.3 ± 1 | 0.69 ± 0.03 | 765.29 ± 1 |  |  |  |  |  |  |  |  |
| NCCO [2-aminoethan-1-ol] | 23.4 ± 0.95 | 1016.3 ± 1 | 14.71 ± 0.6 | 1008.02 ± 1 | 9.77 ± 0.4 | 999.98 ± 1 | 6.83 ± 0.28 | 991.97 ± 1 |  |  |  |  |  |  |  |  |
| CCO [ethanol] + CN(CCO)CCO |  |  |  |  |  |  |  |  | 1.17 ± 0.05 | 788.88 ± 1 | 0.97 ± 0.04 | 781.69 ± 1 | 0.81 ± 0.03 | 772.3 ± 1 | 0.69 ± 0.03 | 765.29 ± 1 |
